Literature values, collected in patent US8053463B2, “PPAR active compounds” (Plexxikon Inc., priority 2007, dated 2011).

Tests used:
PPARδ = molecular target: T1, PPARδ (Homo sapiens, UniProt Q03181)
T1 sequence (Q03181 1-441): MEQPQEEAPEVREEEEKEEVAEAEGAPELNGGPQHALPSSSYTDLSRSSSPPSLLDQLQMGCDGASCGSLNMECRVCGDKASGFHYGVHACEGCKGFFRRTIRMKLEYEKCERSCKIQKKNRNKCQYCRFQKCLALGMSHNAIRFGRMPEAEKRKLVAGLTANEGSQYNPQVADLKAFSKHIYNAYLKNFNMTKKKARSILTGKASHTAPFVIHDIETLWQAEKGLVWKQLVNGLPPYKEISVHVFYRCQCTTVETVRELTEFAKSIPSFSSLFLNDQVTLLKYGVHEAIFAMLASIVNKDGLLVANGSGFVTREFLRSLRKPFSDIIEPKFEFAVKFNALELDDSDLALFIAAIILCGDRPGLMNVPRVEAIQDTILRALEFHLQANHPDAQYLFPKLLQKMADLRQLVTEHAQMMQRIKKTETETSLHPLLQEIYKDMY

murine PPARα = molecular target: T2, murine PPARα (Mus musculus, UniProt P23204)
T2 sequence (P23204 1-468): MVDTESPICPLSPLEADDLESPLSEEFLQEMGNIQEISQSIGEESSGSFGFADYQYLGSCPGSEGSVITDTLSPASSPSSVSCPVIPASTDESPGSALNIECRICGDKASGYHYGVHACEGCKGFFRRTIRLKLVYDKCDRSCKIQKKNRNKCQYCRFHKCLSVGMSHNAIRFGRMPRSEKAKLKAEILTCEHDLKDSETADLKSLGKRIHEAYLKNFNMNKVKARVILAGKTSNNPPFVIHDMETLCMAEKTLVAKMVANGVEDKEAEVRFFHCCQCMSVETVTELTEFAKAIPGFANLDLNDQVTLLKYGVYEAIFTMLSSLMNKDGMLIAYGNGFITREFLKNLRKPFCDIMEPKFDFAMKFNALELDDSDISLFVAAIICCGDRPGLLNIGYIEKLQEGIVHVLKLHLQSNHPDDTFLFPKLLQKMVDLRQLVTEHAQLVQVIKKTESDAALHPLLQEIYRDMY

- agonist selectivity for PPARδ over PPARγ (PPARδ): approximately 30 fold
- activity on murine PPARα (murine PPARα): inactive
Compound: CCCc1c(OCCCOc2ccc(OCC(=O)O)cc2)ccc(C(C)=O)c1O [Compound L-165041]
